Article PMC5844890 (Scientific Reports, 2018)
Like-named read-outs stand apart in the source and are kept apart here.

Tests used:
MDA-MB-231 cells [1] = test: Anti-proliferative activity, MDA-MB-231 breast carcinoma cells (Coulter counting); type: cell-based; details: Homo sapiens, MDA-MB-231, 72 h, read-out: Tumor cells IC50 MDA-MB-231
Text: (§1) The anti-proliferative activity of the synthesized benzofurane derivatives was studied in three human cancer cell lines [breast carcinoma (MDA-MB-231), lymphoblastic leukemia (CEM) and cervical carcinoma (HeLa) cells] and one endothelial cell line [human microvascular endothelial cells (HMEC-1)].
(§2) The human microvascular endothelial cell line HMEC-1 was obtained at passage 12 from the Centers for Disease Control and Prevention (Atlanta, GA, USA) and used from passage 17 till 27. Human breast carcinoma (MDA-MB-231), human cervical carcinoma (HeLa) and human T-lymphoid (CEM) cells were obtained from ATCC (Middlesex, UK). Cell lines were maintained in culture for up to 3 months and grown in DMEM, supplemented with 10% FBS, 0.01 M Hepes and 1 mM sodium pyruvate. All cells were cultured in a humidified 5% CO2 incubator at 37 °C.
(§3) HMEC-1 cells were seeded in 48-well plates at 20,000 cells/well. After 24 h, 5-fold dilutions of the compounds were added. The cells were allowed to proliferate 4 days in the presence of the compounds, trypsinized, and counted by means of a Coulter counter (Analis, Belgium). HeLa and MDA-MB-231 cells were seeded in 48-well plates at 10,000 cells/well. After 24 h, different concentrations of the compounds were added. After 3 days of incubation, the cells were trypsinized and counted in a Coulter counter. Suspension cells (human lymphoid Cem cells) were seeded in 96-well plates at 60,000 cells/well in the presence of different concentrations of the compounds, allowed to proliferate for 96 h, and counted in a Coulter counter. The 50% inhibitory concentration (IC50) was defined as the compound concentration required to reduce cell proliferation by 50%.

HeLa cells = test: Anti-proliferative activity, HeLa cervical carcinoma cells (Coulter counting); type: cell-based; details: Homo sapiens, 72 h, read-out: Tumor cells IC50 HeLa
Text: as §1, §2, §3

CEM cells = test: Anti-proliferative activity, CEM lymphoblastic leukemia cells (Coulter counting); type: cell-based; details: Homo sapiens, CCRF-CEM, 96 h, read-out: Tumor cells IC50 CEM
Text: as §1, §2, §3

HMEC-1 cells [2] = test: Anti-proliferative activity, HMEC-1 microvascular endothelial cells (Coulter counting); type: cell-based; details: Homo sapiens, HMEC-1, 96 h, read-out: Endothelial cells IC50 HMEC-1
Text: as §1, §2, §3

A2780AD cells = test: Anti-proliferative activity, A2780AD (MDR overexpressing P-glycoprotein) ovarian carcinoma cells; type: cell-based, human; details: P-glycoprotein overexpressing resistant line, mean ± standard error of three independent experiments, read-out: A2780 AD IC50
Text: (§4) One of the most relevant causes of tumor resistance to chemotherapy is the overexpression of membrane pumps which remove the chemotherapeutic agents from the treated cells.

MDA-MB-231 cells [3] = test: Caspase-3 activity / apoptosis in live cells (fluorescence microscopy); type: cell-based, human; details: 1 µM, after 24 h
Description: (§5) Figure 6 Mechanism of action of the benzofurane derivatives. (A) Inhibition of cell cycle progression. MDA-MB-231 cells were treated with DMSO (control) or compounds 8, 27 or 28 for 24 h. Next, the cells were harvested, stained with propidium iodide (PI), and cell cycle distribution was evaluated by flow cytometry. Percentages of cells in the different phases of the cell cycle are indicated. (B) Caspase-3 activity. MDA-MB-231 cells were seeded in 48-well plates at 40,000 cells/cm². After 24 h, different concentrations of compounds 8, 27 or 28 and 2 µM of the caspase-3 substrate DEVD-NucView488 were added. After 16 h, the cells were incubated with 2 µg/ml Hoechst 33342 to stain the nucleus, and imaged. (C) Disruption of the vascular network. HMEC-1 cells were cultured on matrigel for 3 h to allow the formation of tube-like structures. Next, different concentrations of compounds were added. Upper panel: After 90 min, pictures were taken and the tubular network was scored (3: intact network, 0: network completely destroyed). Bars show average ± SEM (n = 4). Lower panel: Microscopic pictures of the tubular network 3 h after addition of compound.
To confirm the capacity of compounds 27 and 28 to induce apoptosis, MDA-MB-231 cells were treated with the compounds for 24 h in the presence of NucView® 530 Caspase-3. This substrate is cleaved by active caspase-3 activity (the main executioner enzyme during apoptosis) to generate a fluorescent derivative that is analyzed using fluorescence microscopy.
MDA-MB-231 cells were seeded at 40,000 cells/cm². After 24 h, cells were incubated in Fluorobrite DMEM (Gibco), containing the compound and 2 µM of the caspase-3 substrate DEVD-NucView488 (Biotium, Hayward, CA). After 16 h, the DNA was stained with Hoechst33342 and the cells were imaged by fluorescence microscopy.

HMEC-1 cells [4] = test: IncuCyte scratch wound migration assay with PI uptake; type: cell-based
Description: Proper tubulin organization is not only required for cell division but also for cell motility and migration. Therefore, we evaluated the capacity of the compounds to inhibit the migration of HMEC-1 endothelial cells. To this end, we used the 96-well IncuCyte® scratch wound assay. After the creation of a cell-free zone (wound) in a confluent cell monolayer, compounds were added, and relative wound density was measured every minute and visualized in time-course plots. PI was added to all wells to visualize toxicity over time, i.e. only dead cells take up this cell-impermeable dye.
Figure 7 Inhibition of HMEC-1 migration. The 96-well IncuCyte® scratch wound assay was used to create a cell-free zone (wound) in a confluent cell monolayer. Next, compounds were added and the relative wound density was measured every minute and visualized in time-course plots (left panels). PI is added to all wells to visualize toxicity over time, i.e. only dead cells take up this cell-impermeable dye (right panels). Average ± SEM (n = 3) are shown.
Wounds were created in confluent HMEC-1 cells by means of the “Incucyte® wound maker”. Next, different concentrations of compound and PI were added and images were taken every 2 min for the duration of the experiment. The algorithm masks each phase-contrast image to identify the position of the wounded (cell-free) and unwounded (cell-occupied) zones. Relative wound density is calculated and visualized in time-course plots.

MDA-MB-231 cells [5] = test: Cell cycle analysis (propidium iodide, flow cytometry); type: cell-based, human; details: 0.3 µM, 24 h treatment
Description: Tubulin-binding agents interfere with mitotic spindle formation during cell division. […] Thus, we investigated whether 27 and 28 affect the progression of human breast cancer MDA-MB-231 cells through the cell cycle. […] In contrast, compounds 27 and 28 arrested the cell cycle in the M phase (mitosis) at concentrations as low as 0.03 and 0.1 μM (for compound 27 and 28 respectively).
as §5
MDA-MB-231 cells were seeded in 6-well plates at 125,000 cells/well in DMEM with 10% FBS. After 24 h, the cells were exposed to different concentrations of the compounds. After 24 h, the DNA of the cells was stained with propidium iodide using the CycleTEST PLUS DNA Reagent Kit (BD Biosciences, San Jose, CA). The DNA content of the stained cells was assessed by flow cytometry on a FACSCalibur flow cytometer and analyzed with CellQuest software (BD Biosciences) within 3 h after staining. Cell debris and clumps were excluded from the analysis by appropriate dot plot gating. Percentages of sub-G1, G1, S, and G2/M cells were estimated using appropriate region markers.

A2780 cells = test: Anti-proliferative activity, A2780 ovarian carcinoma cells; type: cell-based, human; details: mean ± standard error of three independent experiments
Text: as §4

αβ-tubulin = details: relative to prototypes 7 and 8; cited from earlier work
[6] = system: tumor and endothelial cells; set-up: method as in PMID 24773591; details: relative to prototypes 7 and 8; cited from earlier work
[7] = mean ± SD of three independent experiments, 3 days of incubation
[8] = mean ± SD of three independent experiments
[9] = mean ± SD of three independent experiments, 4 days

Compound	IC50 (A2780AD cells; Homo sapiens, A2780AD) [nM]	IC50 (A2780 cells; Homo sapiens, A2780) [nM]	melting point [°C]	IC50 (MDA-MB-231 cells [1]; [7]) [nM]	IC50 (HeLa cells; [7]) [nM]	IC50 (CEM cells; [8]) [nM]	IC50 (HMEC-1 cells [2]; [9]) [nM]	other results
COc1ccc(/C=C\c2cc(OC)c(OC)c(OC)c2)cc1OP(=O)(O)O [CA-4P, reference compound]								IC50 (MDA-MB-231 cells [1]): 2.1 ± 0.3 nM; IC50 (HeLa cells): 13 ± 1 nM; IC50 (CEM cells): 11 ± 1 nM; IC50 (HMEC-1 cells [2]): 2.9 ± 0.1 nM
CCOc1ccccc1NC(C)=C1C(=O)CC(c2ccccc2)CC1=O (stereo not drawn) [Compound 8]	111 ± 16	116 ± 8						IC50 (MDA-MB-231 cells [1]): 68 ± 5 nM; IC50 (HeLa cells): 180 nM; apoptotic rate (apoptotic cells, caspase-3 substrate) (MDA-MB-231 cells [3]): 9%; IC50 (CEM cells): 190 ± 10 nM; lowest concentration inhibiting wound closure (HMEC-1 cells [4]): 0.5 µM; uptake of PI (toxicity) (HMEC-1 cells [4]; at the lowest concentration inhibiting wound closure (0.5, 0.06 and 0.06 µM)): No increased uptake of PI; IC50 (HMEC-1 cells [2]): 100 ± 20 nM; cell cycle arrest (MDA-MB-231 cells [5]): no longer active
CCC(Nc1ccccc1O)=C1C(=O)CC(c2ccccc2)CC1=O (stereo not drawn) [Compound 9]								fold less active in tubulin binding (αβ-tubulin): 100 fold; fold less active in antiproliferative assays [6]: 100 fold
CC(Nc1cccc2cc(C)oc12)=C1C(=O)CC(c2ccccc2)CC1=O (stereo not drawn) [Compound 14, 2-(1-((2-Methylbenzofuran-7-yl)amino)ethylidene)-5-phenylcyclohexane-1,3-dione]			127 to 129	53 ± 6	160 ± 10	38 ± 1	65 ± 3	
COC(=O)c1cc2cccc(NC(C)=C3C(=O)CC(c4ccccc4)CC3=O)c2o1 (stereo not drawn) [Compound 20, Methyl 7-((1-(2,6-dioxo-4-phenylcyclohexylidene)ethyl)amino)benzofuran-2-carboxylate]	660 ± 50	440 ± 20	178 to 180	170 ± 10	890 ± 30	640 ± 360	1600 ± 600	
CNC(=O)c1cc2cccc(NC(C)=C3C(=O)CC(c4ccccc4)CC3=O)c2o1 (stereo not drawn) [Compound 21, 7-((1-(2,6-Dioxo-4-phenylcyclohexylidene)ethyl)amino)-N-methylbenzofuran-2-carboxamide]			108 to 110	1500 ± 600	12000 ± 6000	5500 ± 1700	14000 ± 11000	
CC(Nc1cccc2cc(CO)oc12)=C1C(=O)CC(c2ccccc2)CC1=O (stereo not drawn) [Compound 22, 2-(1-((2-(Hydroxymethyl)benzofuran-7-yl)amino)ethylidene)-5-phenylcyclohexane-1,3-dione]			120 to 122	15 ± 2	140 ± 40	40 ± 2	150 ± 50	
CC(=O)O[C@H]1C(=O)[C@@]2(C)[C@H]([C@H](OC(=O)c3ccccc3)[C@]3(O)C[C@H](OC(=O)[C@H](O)[C@@H](NC(=O)c4ccccc4)c4ccccc4)C(C)=C1C3(C)C)[C@]1(OC(C)=O)CO[C@@H]1C[C@@H]2O [Paclitaxel, reference compound]	2100 ± 300	1 ± 0.1						
COc1cc([C@@H]2c3cc4c(cc3[C@H](O)[C@H]3COC(=O)[C@H]23)OCO4)cc(OC)c1OC [Podophillotoxin, reference compound]								IC50 (A2780AD cells): 74 ± 12 nM; IC50 (A2780 cells): 64 ± 9 nM
